This note sets out measurements from PubChem BioAssay (NCI).

Holding throughout (experiment): NCI tumour cell line growth inhibition, 48 h
For test [1], the system named is CAKI-1 renal.
For test [2], the system named is DU-145 prostate.
Test [3] has as its system NCI-H23 lung.
The subject of test [4] is SF-268 CNS.
Test [5] deals with SK-MEL-28 melanoma.
Test [6] relates to SK-MEL-5 melanoma.
In test [7] the test system is SNB-75 CNS.
The test system of test [8] is TK-10 renal.
Test [9] deals with UACC-257 melanoma.
Test [10] has as its system HOP-92 NSCLC.

SMILES strings stand for the structures.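 The compound was tested at five concentrations on cells cultured in 96-well plates, with a 48-hour exposure period. GI50: concentration for 50% inhibition of growth. At the TGI there is no net growth.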 Where only a bound is given, the exact number is not on record here.

In the case of `O=C(n1c(=O)n(-c2ccc([N+](=O)[O-])cc2)c(=O)n1C(=O)C(Cl)(Cl)Cl)C(Cl)(Cl)Cl`, the TGI in [1], in test [2], in [3], in test [4], in test [5] and in [6] was more than 100 µM throughout. Besides, the TGI in [7], in test [8] and in test [9] was more than 100 µM throughout.

In the case of `O=C(NNc1ccc([N+](=O)[O-])cc1)C1OC(CO)C(O)C1O` (centres undefined), the TGI in test [1], in [10], in [3], in test [4], in test [5] and in test [6] was more than 100 µM in each case. For the same compound, the TGI in [7], in test [8] and in [9] was more than 100 µM throughout.

Take `Cc1cccc(-c2cc(=O)c3c(C)ccnc3[nH]2)c1`: the TGI was more than 100 µM in test [1]; more than 100 µM in test [2]; more than 100 µM in test [3]; more than 100 µM in test [4]; more than 100 µM in test [5]; 27.8 µM in test [6]. The TGI in [7] and in test [8] was more than 100 µM throughout.

As for `CCCCCCCCCC[C@@H](O)[C@H]1CC[C@@H]([C@H]2CC[C@H]([C@H](O)CCCCCCCCCC[C@@H]3CC(CC(C)=O)C(=O)O3)O2)O1` (some centres undefined), the TGI in [1] was more than 100 µM; in test [10], 63.4 µM; in test [3], more than 100 µM; in [4], more than 100 µM; in test [5] it was more than 100 µM; in test [6], 16.2 µM. Moreover, the TGI in test [8] is more than 100 µM; in test [9], 66.3 µM. For the same compound, the GI50 in test [3] is 0.754 µM; in test [4], 27.4 µM; in test [5] it was 29 µM; in [7] it was 72 µM; in [8], 26.9 µM; in test [9], 3.23 µM.

Consider `C=C1C(=O)OC2C1CC1OC2C(C)CCC/C(C)=C\CCC1(C)O` (centres undefined), for which the TGI in test [1] was found to be 61.4 µM; in [10], 30.1 µM; in test [3], 29 µM; in test [4], 51.8 µM; in test [5], 43.1 µM; in [6] it was 12.4 µM. Besides, the TGI in test [7] amounted to 51.5 µM; in test [9], 72.8 µM.

Take `Cn1cnc([N+](=O)[O-])c1Sc1nncc2[nH]cnc12`: the TGI in test [1], in [10], in test [3], in test [5], in [6] and in test [7] was more than 100 µM in each case. In addition, the TGI in test [8] and in [9] was more than 100 µM each time.

For `Cc1cc2nnn(C3CCCO3)c2cc1C` (centres undefined), the TGI in [1], in test [2], in test [3], in test [4], in test [6] and in [7] was more than 100 µM each time. In addition, the TGI in test [8] and in test [9] was more than 100 µM each time.

Turning to `Cc1ccc(NC(=O)NC23CC4CC(CC(F)(C4)C2)C3)cc1`, the TGI in test [10] is more than 100 µM; in [3] it was more than 100 µM; in test [5], more than 100 µM; in test [6] it was more than 100 µM; in test [7], 87.1 µM; in test [8] it was more than 100 µM. Besides, the TGI in test [9] was more than 100 µM.

For `CC1=NN(C(=O)Cc2ccccc2)C(=O)/C1=C\c1cccc(O)c1`, the TGI in [1], in test [3], in test [4], in test [5], in test [6] and in test [7] was more than 100 µM in each case. Besides, the TGI in test [8] and in test [9] was more than 100 µM in each case.

As to `OCC(CO)CC1COc2ccccc2O1` (centres undefined), the TGI in test [1], in test [2], in test [3], in [4], in [5] and in [6] was more than 10 µM throughout. The TGI in test [7] and in test [8] was more than 10 µM throughout.

In the case of `CCC[CH2][Ge]([CH2]CCC)([CH2]CCC)[O]C(=O)CCl`, the GI50 is 5.26 µM in test [1]; 0.573 µM in [10]; 0.115 µM in test [3]; 10.2 µM in test [4]; 11.5 µM in test [5]; 0.305 µM in test [6]. In test [8], the GI50 was 3.4 µM. The TGI in test [1] amounted to 20.3 µM; in test [10] it was 8.54 µM; in [3], 12.5 µM; in [4] it was 23.1 µM; in test [5], 23.6 µM; in test [6] it was 3.36 µM. In test [8], this compound gave a TGI of 17.7 µM.

As for `CC1Oc2c(c(O)cc3oc(=O)cc(-c4ccccc4)c23)C(=O)C1C` (centres undefined), the TGI in [1], in [10], in test [3], in test [4], in [5] and in [6] was more than 100 µM throughout. Moreover, the TGI in test [7] and in test [8] was more than 100 µM in each case.

In the case of `C#Cc1ccccc1C(=O)OC`, the TGI in test [10], in [3], in test [5], in test [6], in test [7] and in test [8] was more than 100 µM throughout. The compound further returned a TGI in test [9] of more than 100 µM.

As to `OCC1=C[C@@](COCc2ccccc2)(OCc2ccccc2)[C@@H](OCc2ccccc2)[C@@H]1OCc1ccccc1`, the TGI in test [1] is 45.1 µM; in test [2], more than 100 µM; in test [3], 38.8 µM; in test [4] it was more than 100 µM; in test [5] it was more than 100 µM; in [6], 30.5 µM. For the same compound, the TGI was more than 100 µM in test [8] and 67.6 µM in [9].

Turning to `Brc1ccc2[nH]cc(-c3nc(-c4c[nH]c5ccncc45)cs3)c2c1`, the GI50 in test [2] was 1.68 µM; in [3], 1.64 µM; in [5], 1.73 µM; in test [6], 1.61 µM; in test [7], 1.22 µM; in test [8], 2.33 µM. Further, the GI50 in test [9] was 1.92 µM. Also, the TGI was determined as 3.07 µM in test [2]; 3.17 µM in [3]; 3.13 µM in [5]; 2.98 µM in test [6]; 2.53 µM in [7]; 3.9 µM in test [8]. This compound also returned a TGI in test [9] of 3.46 µM.

As for `O.O=[Se](=O)(O)O.[NH-]C1CCCCC1[NH-].[Pt+2]` (centres undefined), the GI50 was 4.56 µM in test [1]; 58.8 µM in test [10]; 10.9 µM in [3]; 8.09 µM in test [4]; 10.1 µM in test [5]; 7.4 µM in test [6]. Also, the values for the GI50 in [7] and in test [9] were 16.9 µM and 46.4 µM, respectively. Besides, the TGI is 78.6 µM in test [1]; more than 100 µM in test [10]; more than 94.9 µM in test [3]; more than 100 µM in [4]; more than 100 µM in [5]; 15.6 µM in test [6]. For the same compound, the results for the TGI in test [7] and in test [9] were more than 83 µM and more than 100 µM, respectively.

`O=C(c1ccccc1)c1ccc2c(c1)N=C(c1ccc(Cl)c(Cl)c1)CC(c1ccc3ccccc3c1)N2` (centres undefined): the TGI in test [1], in test [10], in test [3], in test [4], in [5] and in test [6] was more than 100 µM in each case. Further, the TGI in test [7], in test [8] and in test [9] was more than 100 µM in each case.

For the compound `COc1cccc2c1C(=O)c1c(O)c3c(c(O)c1C2=O)C[C@](O)(C(=O)CO)CC3OC1CC(N)C(OC2CCCCO2)C(C)O1` (some centres undefined), the TGI in test [1] was 18.2 µM; in test [10] it was 1.02 µM; in test [3], 1.97 µM; in test [4], 3.04 µM; in test [5], 3.38 µM; in test [6], 1.34 µM. The TGI in test [7] turned out to be 1.18 µM; in [9] it was 2.5 µM.

On to `CC(=O)N/N=C1\NN(C(C)=O)C2(S1)C(=O)Nc1ccccc12` (centres undefined), for which the TGI in test [1], in [2], in test [3], in test [4], in [5] and in test [6] was more than 100 µM in each case. Moreover, the TGI in test [7] and in test [8] was more than 100 µM throughout.

On to `COc1ccc(/C(Cl)=C(\C=O)c2ccc(Cl)cc2)cc1`, for which the TGI in test [1] is more than 100 µM; in [3], 17.1 µM; in test [4] it was 58.7 µM; in test [6], 32.6 µM; in test [7] it was 26.2 µM; in test [8] it was more than 100 µM. This compound also displayed a TGI in [9] of 77.4 µM.

As to `CN(c1ccccc1)c1c(-c2ccccc2)c(=O)oc2c1ccc1occc12`, the TGI was more than 100 µM in [1]; more than 95.6 µM in [10]; more than 100 µM in test [3]; more than 100 µM in [4]; more than 100 µM in [5]; more than 100 µM in [6]. Besides, the TGI in [7] and in test [9] was more than 100 µM each time.
